The text below walks through data of patent EP4603105A1, “PHARMACEUTICAL COMPOSITION CONTAINING CYCLIC COMPOUND HAVING SELECTIVE KRAS INHIBITORY EFFECT AGAINST HRAS AND NRAS” (CHUGAI SEIYAKU KABUSHIKI KAISHA, priority 2022, dated 2024).

In general, Kd refers to the equilibrium constant for the complex coming apart. A low value points to higher affinity. For orientation: IC50 means the concentration that inhibits the measured activity by half.

Assay [1] has as its target GDP-bound KRAS wild-type protein (Homo sapiens, UniProt P01116). The experiment in a line: Binding to KRAS by surface plasmon resonance (SPR), dissociation constant KD. Particulars: 1:1 binding model. A digest of the protocol: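 Affinity is measured by surface plasmon resonance at 30°C against captured, GDP-loaded RAS carrying a biotinylated Avi tag. Compounds are titrated by single-cycle kinetics, and KD comes from a 1:1 fit.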
For orientation: SPR reads the build-up and loss of mass on a sensor chip optically.

The subject of assay [2] is human lung cancer strain NCI-H441. Kind of assay: NCI-H441 cell proliferation inhibitory activity (CellTiter-Glo, 4 days). The format is cell-based. The following applies: NCI-H441 cells, 4 days, read-out: NCl-H441 IC50. A digest of the protocol:
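Step one: dispense the test compound in serial DMSO dilutions. Step three: add the reagent and measure […].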
For orientation: In ATP-based viability assays light output follows the ATP content of the culture.

For assay [3], the target named is GDP-bound NRAS wild-type protein (Homo sapiens, UniProt P01111). Kind of assay: Binding to NRAS by surface plasmon resonance (SPR), KD and KD ratio to KRAS. The following applies: ratio of KD for GDP-bound NRAS wild-type protein to KD for KRAS. A digest of the protocol: (§1)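 Biotinylated GDP-bound RAS was captured at about 100–300 RU. Running buffer: HBS pH 7.4, 10 mM MgCl2, 10 µM GDP, 1 mM DTT, 0.01% Tween 20, 4% DMSO.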
Sequence of GDP-bound NRAS wild-type protein (P01111 whole entry): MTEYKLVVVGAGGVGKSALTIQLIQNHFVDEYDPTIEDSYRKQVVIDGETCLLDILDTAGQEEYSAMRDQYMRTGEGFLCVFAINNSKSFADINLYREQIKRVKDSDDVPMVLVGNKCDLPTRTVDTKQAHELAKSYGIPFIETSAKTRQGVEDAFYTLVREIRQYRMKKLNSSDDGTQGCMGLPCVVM

Another assay has as its target HRAS wild-type protein (Homo sapiens, UniProt P01112). The experiment in a line: Binding to HRAS by surface plasmon resonance (SPR), KD and KD ratio to KRAS. The following applies: ratio of KD for HRAS wild-type protein to KD for KRAS. The essentials: as §1

Sequence of GDP-bound KRAS wild-type protein (P01116 1-188 isoform P01116-2): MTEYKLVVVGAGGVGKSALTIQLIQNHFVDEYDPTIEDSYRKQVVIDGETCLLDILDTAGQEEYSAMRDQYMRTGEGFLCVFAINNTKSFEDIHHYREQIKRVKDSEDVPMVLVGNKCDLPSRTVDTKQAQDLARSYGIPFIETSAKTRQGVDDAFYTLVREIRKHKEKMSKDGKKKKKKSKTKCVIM
Sequence of HRAS wild-type protein (P01112 whole entry): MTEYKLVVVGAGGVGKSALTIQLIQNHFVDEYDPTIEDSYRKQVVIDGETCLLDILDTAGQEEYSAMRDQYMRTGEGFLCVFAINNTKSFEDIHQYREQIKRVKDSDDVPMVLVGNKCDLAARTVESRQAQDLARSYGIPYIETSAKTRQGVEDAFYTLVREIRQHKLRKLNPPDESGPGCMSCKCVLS

As for `CCC(CC)[C@H]1C(=O)N(C)[C@H](C(=O)N(C)C)CC(=O)N(C)[C@@H](COC)C(=O)N[C@@H]([C@@H](C)CC)C(=O)N(C)CC(=O)N(C)[C@H]2C/C=C\CCN(C2=O)[C@@H](CC2CCC(F)(F)CC2)C(=O)N(C)CC(=O)N[C@@H](CCc2ccc(C(F)(F)F)c(OC)c2)C(=O)N2C[C@@H](C)C[C@H]2C(=O)NC2(CC(C)(C)C2)C(=O)N1C` [PP2442], binding in assay [1] was characterised by a dissociation constant (Kd) of 0.97 nM. In addition, the IC50 in assay [2] was determined as 79.7 nM. In addition, in assay [3], the “NRAS /KRAS” value is “A (a compound having 10 or more and less than 20 is denoted as A)”. In addition, the “HRAS /KRAS” value at HRAS wild-type protein was “A (a compound having 10 or more and less than 20 is denoted as A)”.

The compound `CCO[C@@H]1C[C@H]2C(=O)NC3(CC(C)(C)C3)C(=O)N(C)[C@@H](C(CC)CC)C(=O)N(C)[C@H](C(=O)N(C)C)CC(=O)N(C)[C@@H](COC)C(=O)N[C@@H]([C@@H](C)CC)C(=O)N(C)CC(=O)N(C)[C@H]3C/C=C\CCN(C3=O)[C@@H](CC3CCC(F)(F)CC3)C(=O)N(C)CC(=O)N[C@@H](CCc3ccc(C(F)(F)F)c(Cl)c3)C(=O)N2C1` [PP2444] came in with a Kd in assay [1] of 0.59 nM. In addition, the IC50 in assay [2] came to 32.3 nM. For the same compound, the “NRAS /KRAS” value in assay [3] is “A (a compound having 10 or more and less than 20 is denoted as A)”. Besides, the “HRAS /KRAS” value at HRAS wild-type protein is “A (a compound having 10 or more and less than 20 is denoted as A)”.

`CCOC[C@H]1C(=O)N[C@@H]([C@@H](C)CC)C(=O)N(C)CC(=O)N(C)[C@H]2C/C=C\CCN(C2=O)[C@@H](Cc2ccc(C)cc2)C(=O)N(C)CC(=O)N[C@@H](CCc2ccc(C(F)(F)F)c(OC)c2)C(=O)N2C[C@H](OCC)C[C@H]2C(=O)NC2(CC(C)(C)C2)C(=O)N(C)[C@@H](C2CCCC2)C(=O)N(C)[C@H](C(=O)N(C)CC)CC(=O)N1C` [PP2445] returned a Kd in assay [1] of 0.14 nM. Besides, the IC50 in assay [2] stood at 11.7 nM. The “NRAS /KRAS” value in assay [3] was “A (a compound having 10 or more and less than 20 is denoted as A)”. Moreover, the “HRAS /KRAS” value on HRAS wild-type protein is “B (a compound having 3 or more and less than 10 is denoted as B)”.

Compound `CCC(CC)[C@H]1C(=O)N(C)[C@H](C(=O)N(C)C)CC(=O)N(C)[C@@H](COC)C(=O)N[C@@H]([C@@H](C)CC)C(=O)N(C)CC(=O)N(C)[C@H]2C/C=C\CCN(C2=O)[C@@H](CC2CCC(F)(F)CC2)C(=O)N(C)CC(=O)N[C@@H](CCc2cc(F)c(C(F)(F)F)c(F)c2)C(=O)N2C[C@@H](C)C[C@H]2C(=O)NC2(CC(C)(C)C2)C(=O)N1C` [PP2448] gave a dissociation constant Kd in assay [1] of 1.4 nM. In assay [2], the IC50 was 26.9 nM. Also, the “NRAS /KRAS” value in assay [3] was “A (a compound having 10 or more and less than 20 is denoted as A)”. Further, the “HRAS /KRAS” value at HRAS wild-type protein was “A (a compound having 10 or more and less than 20 is denoted as A)”.

`CCCOC[C@H]1C(=O)N[C@@H]([C@@H](C)CC)C(=O)N(C)CC(=O)N(C)[C@H]2C/C=C\CCN(C2=O)[C@@H](Cc2ccc(C)cc2)C(=O)N(C)CC(=O)N[C@@H](CCc2ccc(C(F)(F)F)c(OC)c2)C(=O)N2C[C@H](OCC)C[C@H]2C(=O)NC2(CC(C)(C)C2)C(=O)N(C)[C@@H](C2CCCC2)C(=O)N(C)[C@H](C(=O)N(C)C)CC(=O)N1C` [PP2449] displayed a Kd in assay [1] of 0.061 nM. Also, the half-inhibitory concentration (IC50) in assay [2] is 7.8 nM. For the same compound, the “NRAS /KRAS” value in assay [3] was “A (a compound having 10 or more and less than 20 is denoted as A)”. Further, the “HRAS /KRAS” value on HRAS wild-type protein is “A (a compound having 10 or more and less than 20 is denoted as A)”.

In assay [1], `CCOC[C@H]1C(=O)N[C@@H]([C@@H](C)CC)C(=O)N(C)CC(=O)N(C)[C@H]2C/C=C\CCN(C2=O)[C@@H](CC2CCC(F)(F)CC2)C(=O)N(C)CC(=O)N[C@@H](CCc2cc(F)c(C(F)(F)F)c(F)c2)C(=O)N2C[C@H](OCC)C[C@H]2C(=O)NC2(CC(C)(C)C2)C(=O)N(C)[C@@H](C(CC)CC)C(=O)N(C)[C@H](C(=O)N(C)C)CC(=O)N1C` [PP2450] registered a Kd of 0.55 nM. The IC50 in assay [2] is 29.2 nM. In addition, the “NRAS /KRAS” value in assay [3] is “A (a compound having 10 or more and less than 20 is denoted as A)”. Moreover, the “HRAS /KRAS” value at HRAS wild-type protein was “A (a compound having 10 or more and less than 20 is denoted as A)”.

Compound `CCOC[C@H]1C(=O)N[C@@H]([C@@H](C)CC)C(=O)N(C)CC(=O)N(C)[C@H]2C/C=C\CCN(C2=O)[C@@H](Cc2ccc(C)cc2)C(=O)N(C)CC(=O)N[C@@H](CCc2ccc(C(F)(F)F)c(Cl)c2)C(=O)N2C[C@@H](C)C[C@H]2C(=O)NC2(CC(C)(C)C2)C(=O)N(C)[C@@H](C2CCCC2)C(=O)N(C)[C@H](C(=O)N(C)CC)CC(=O)N1C` [PP2451] displayed a dissociation constant (Kd) in assay [1] of 0.17 nM. Further, the half-inhibitory concentration (IC50) in assay [2] was determined as 8.6 nM. Besides, the “NRAS /KRAS” value in assay [3] was “A (a compound having 10 or more and less than 20 is denoted as A)”. The “HRAS /KRAS” value at HRAS wild-type protein is “A (a compound having 10 or more and less than 20 is denoted as A)”.

`CCCOC[C@H]1C(=O)N[C@@H]([C@@H](C)CC)C(=O)N(C)CC(=O)N(C)[C@H]2C/C=C\CCN(C2=O)[C@@H](Cc2ccc(C)cc2)C(=O)N(C)CC(=O)N[C@@H](CCc2ccc(C(F)(F)F)c(Cl)c2)C(=O)N2C[C@@H](C)C[C@H]2C(=O)NC2(CC(C)(C)C2)C(=O)N(C)[C@@H](C2CCCC2)C(=O)N(C)[C@H](C(=O)N(C)C)CC(=O)N1C` [PP2453]: in assay [1], the Kd worked out at 0.09 nM. Also, the IC50 in assay [2] came to 9.2 nM. Also, the “NRAS /KRAS” value in assay [3] is “A (a compound having 10 or more and less than 20 is denoted as A)”. The “HRAS /KRAS” value at HRAS wild-type protein was “A (a compound having 10 or more and less than 20 is denoted as A)”.

In assay [1], `CCC(CC)[C@H]1C(=O)N(C)[C@H](C(=O)N(C)C)CC(=O)N(C)[C@@H](COC)C(=O)N[C@@H]([C@@H](C)CC)C(=O)N(C)CC(=O)N(C)[C@H]2C/C=C\CCN(C2=O)[C@@H](CC2CCC(F)(F)CC2)C(=O)N(C)CC(=O)N[C@@H](CCc2ccc(C(F)(F)F)c(Cl)c2)C(=O)N2C[C@@H](C)C[C@H]2C(=O)NC2(CC(C)(C)C2)C(=O)N1C` [PP2454] displayed a Kd of 1.2 nM. Further, the IC50 in assay [2] was determined as 80.2 nM. Further, the “NRAS /KRAS” value in assay [3] is reported as “AA (a compound having 20 or more is denoted as AA)”. Also, the “HRAS /KRAS” value at HRAS wild-type protein was “A (a compound having 10 or more and less than 20 is denoted as A)”.

`CCOC[C@H]1C(=O)N[C@@H]([C@@H](C)CC)C(=O)N(C)CC(=O)N(C)[C@H]2C/C=C\CCN(C2=O)[C@@H](CC2CCC(F)(F)CC2)C(=O)N(C)CC(=O)N[C@@H](CCc2ccc(C(F)(F)F)c(OC)c2)C(=O)N2C[C@@H](C)C[C@H]2C(=O)NC2(CC(C)(C)C2)C(=O)N(C)[C@@H](C(CC)CC)C(=O)N(C)[C@H](C(=O)N(C)C)CC(=O)N1C` [PP2458]: binding in assay [1] was put at a Kd of 1.3 nM. Also, the half-maximal inhibitory concentration (IC50) in assay [2] was 80.7 nM. In assay [3], the “NRAS /KRAS” value was “A (a compound having 10 or more and less than 20 is denoted as A)”. For the same compound, the “HRAS /KRAS” value on HRAS wild-type protein is “A (a compound having 10 or more and less than 20 is denoted as A)”.

In assay [1], `CCOC[C@H]1C(=O)N[C@@H]([C@@H](C)CC)C(=O)N(C)CC(=O)N(C)[C@H]2C/C=C\CCN(C2=O)[C@@H](CC2CCC(F)(F)CC2)C(=O)N(C)CC(=O)N[C@@H](CCc2ccc(C(F)(F)F)c(Cl)c2)C(=O)N2C[C@H](OCC)C[C@H]2C(=O)NC2(CC(C)(C)C2)C(=O)N(C)[C@@H](C(CC)CC)C(=O)N(C)[C@H](C(=O)N(C)C)CC(=O)N1C` [PP2460] returned a Kd of 0.71 nM. Further, the IC50 in assay [2] worked out at 18.7 nM. Besides, the “NRAS /KRAS” value in assay [3] was “A (a compound having 10 or more and less than 20 is denoted as A)”. Further, at HRAS wild-type protein, the “HRAS /KRAS” value is “A (a compound having 10 or more and less than 20 is denoted as A)”.
